Measurements reported in patent publication US11530223B2, “Spiro-lactam NMDA receptor modulators and uses thereof” (Aptinyx Inc., priority 2016, dated 2022).
Where two headings read alike, the source gives them in different places. Values belong to the compound of their own block, whether it stands above or below them.

Columns and labels:
[1] = system: Sprague Dawley rats; assay: Porsolt forced swim test; format: in vivo; settings: 0.1 mg/kg; for % reduction in float time: relative to vehicle group
Description: A non-clinical in vivo pharmacology study (Porsolt assay) was performed to measure antidepressant-like effects. A negative control (0.5% sodium carboxymethyl cellulose in 0.9% sterile saline vehicle) and a positive control (fluoxetine) are shown for comparison against test compound. The study allowed for the evaluation of the effects of each compound on the Porsolt forced swim test as assessed by the rats' response (reduced floating time) during a 5-minute swimming test.
Male 2-3 month old Sprague Dawley rats were used (Harlan, Indianapolis, Ind.). Rats were housed in Lucite cages with aspen wood chip bedding, maintained on a 12:12 light:dark cycle (lights on at 5 AM), and given ad libitum access to Purina lab chow (USA) and tap water throughout the study.
The Porsolt forced swim test adapted for use in rats was performed as described by Burgdorf et al., (The long-lasting antidepressant effects of rapastinel (GLYX-13) are associated with a metaplasticity process in the medial prefrontal cortex and hippocampus. Neuroscience 308:202-211, 2015). Animals were placed in a 46 cm tall×20 cm in diameter clear glass tube filled to 30 cm with tap water (23±1° C.) for 15 min on the first day (habituation) and 5 min on the subsequent test day. Positive control fluoxetine was dosed 3 times (24 h, 5 h and 1 h) prior to testing. Animals were tested 1 h or 24 h post-dosing with the test compounds or vehicle. Animals received a 15 min habituation session 1 day before the 5 min test. A subset of compounds tested at 1 h post-dosing were retested at 1 wk post-dosing in the same sets of animals. Water was changed after every other animal. Animals were videotaped, and floating time as defined as the minimal amount of effort required to keep the animals head above water was scored offline by a blinded experimenter with high inter-rater reliability (Pearson's r>0.9).
Each compound tested at dose level shown. Significance vs. vehicle group for each experiment is marked. […] A compound marked “No” was not statistically significant from vehicle. Data was averaged for test compound and vehicle groups (N approximately 8 per group) and the percent reduction in floating for group treated with test compound relative to group treated with vehicle is shown.

[2] = biological target: T1, NMDAR2A (Homo sapiens, UniProt Q12879); assay: [3H]MK-801 binding in NMDAR2A expressing HEK cell membranes; format: biochemical; parameters: key to B: log EC50: 0=−; ≥1×10^−9 M (e.g., −8)=+; <1×10^−9 M (e.g., −10)=++; settings: 50 μM glutamate; for EC50: read-out: B: log EC50 (converted); for Emax: read-out: A: % maximal [3H]MK-801 binding relative to 1 mM glycine
T1 construct: expressed in transfected cells; host or cells: HEK cells (membrane extract)
T1 sequence (Q12879 23-1464, species assumed, other chains not shown): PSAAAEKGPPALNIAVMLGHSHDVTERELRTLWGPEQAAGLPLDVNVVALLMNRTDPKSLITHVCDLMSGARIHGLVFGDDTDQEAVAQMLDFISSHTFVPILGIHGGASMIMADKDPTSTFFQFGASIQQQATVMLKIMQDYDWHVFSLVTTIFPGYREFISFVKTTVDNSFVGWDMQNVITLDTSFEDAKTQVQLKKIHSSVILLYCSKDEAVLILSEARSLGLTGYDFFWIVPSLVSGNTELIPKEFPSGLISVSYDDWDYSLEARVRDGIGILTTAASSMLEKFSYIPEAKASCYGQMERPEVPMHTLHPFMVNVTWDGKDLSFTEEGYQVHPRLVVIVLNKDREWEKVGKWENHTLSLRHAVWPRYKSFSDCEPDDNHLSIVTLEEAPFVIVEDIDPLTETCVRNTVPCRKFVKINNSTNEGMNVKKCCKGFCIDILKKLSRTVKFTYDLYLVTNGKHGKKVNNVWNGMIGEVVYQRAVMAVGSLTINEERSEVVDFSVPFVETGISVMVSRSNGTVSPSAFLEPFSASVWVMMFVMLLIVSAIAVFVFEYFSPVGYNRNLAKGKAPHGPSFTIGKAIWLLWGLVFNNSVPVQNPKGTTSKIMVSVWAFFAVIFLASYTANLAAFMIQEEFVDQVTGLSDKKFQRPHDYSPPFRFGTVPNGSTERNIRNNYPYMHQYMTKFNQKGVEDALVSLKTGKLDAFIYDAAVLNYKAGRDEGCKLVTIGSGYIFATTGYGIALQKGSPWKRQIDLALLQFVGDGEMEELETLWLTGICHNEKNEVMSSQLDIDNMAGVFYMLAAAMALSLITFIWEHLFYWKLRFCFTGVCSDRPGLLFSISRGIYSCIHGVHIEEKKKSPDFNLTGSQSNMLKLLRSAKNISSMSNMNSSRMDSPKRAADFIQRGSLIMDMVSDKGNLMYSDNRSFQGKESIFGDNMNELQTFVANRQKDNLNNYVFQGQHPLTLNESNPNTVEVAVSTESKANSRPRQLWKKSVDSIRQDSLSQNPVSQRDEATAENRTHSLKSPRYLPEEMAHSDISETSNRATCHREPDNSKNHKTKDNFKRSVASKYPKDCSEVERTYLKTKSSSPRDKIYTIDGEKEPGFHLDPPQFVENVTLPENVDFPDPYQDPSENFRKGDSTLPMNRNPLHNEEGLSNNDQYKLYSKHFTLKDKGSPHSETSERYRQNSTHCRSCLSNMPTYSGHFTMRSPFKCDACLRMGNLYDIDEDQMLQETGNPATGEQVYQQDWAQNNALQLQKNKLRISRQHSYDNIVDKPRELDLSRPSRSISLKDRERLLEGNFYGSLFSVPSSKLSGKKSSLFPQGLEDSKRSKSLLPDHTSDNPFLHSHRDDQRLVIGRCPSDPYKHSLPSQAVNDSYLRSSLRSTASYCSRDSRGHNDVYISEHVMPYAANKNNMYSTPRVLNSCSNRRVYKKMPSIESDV
Description: (§1) Assays were conducted as described by Moskal et al., “GLYX-13: a monoclonal antibody-derived peptide that acts as an N-methyl-D-aspartate receptor modulator,” Neuropharmacology, 49, 1077-87, 2005. These studies were designed to determine if the test compounds act to facilitate NMDAR activation in NMDAR2A, NMDAR2B, NMDAR2C or NMDAR2D expressing HEK cell membranes as measured by increases in [^3H]MK-801 binding.
(§2) In the assay, 300 μg of NMDAR expressing HEK cell membrane extract protein was preincubated for 15 minutes at 25° C. in the presence of saturating concentrations of glutamate (50 μM) and varying concentrations of test compound (1×10^−15M−1×10^−7M), or 1 mM glycine. Following the addition of 0.3 μCi of [^3H]MK-801 (22.5 Ci/mmol), reactions were again incubated for 15 minutes at 25° C. (nonequilibrium conditions). Bound and free [^3H]MK-801 were separated via rapid filtration using a Brandel apparatus.
(§3) In analyzing the data, the DPM (disintegrations per minute) of [^3H]MK-801 remaining on the filter were measured for each concentration of test compound or for 1 mM glycine. The DPM values for each concentration of a ligand (N=2) were averaged. The baseline value was determined from the best fit curve of the DPM values modeled using the GraphPad program and the log(agonist) vs. response (three parameters) algorithm was then subtracted from all points in the dataset. The % maximal [^3H]MK-801 binding was then calculated relative to that of 1 mM glycine: all baseline subtracted DPM values were divided by the average value for 1 mM glycine. The EC50 and % maximal activity were then obtained from the best fit curve of the % maximal [^3H]MK-801 binding data modelled using the GraphPad program and the log(agonist) vs. response (three parameters) algorithm.
(§4) The tables below summarize the results for the wild type […] NMDAR2A, NMDAR2B, NMDAR2C, and NMDAR2D, and whether the compound is not an agonist (−), is an agonist (+), or is a strong agonist (++), where column A is based on the % maximal [^3H]MK-801 binding relative to 1 mM glycine (−=0; <100%=+; and >100%=++); and column B is based on log EC50 values (0=−; ≥1×10^−9 M (e.g., −8)=+; and <1×10^−9 M (e.g., −10)=++).

[3] = biological target: T2, NMDAR2B (Homo sapiens, UniProt Q13224); assay: [3H]MK-801 binding in NMDAR2B expressing HEK cell membranes; format: biochemical; parameters: key to B: log EC50: 0=−; ≥1×10^−9 M (e.g., −8)=+; <1×10^−9 M (e.g., −10)=++; settings: 50 μM glutamate; for EC50: read-out: B: log EC50 (converted); for Emax: read-out: A: % maximal [3H]MK-801 binding relative to 1 mM glycine
T2 construct: expressed in transfected cells; host or cells: HEK cells (membrane extract)
T2 sequence (Q13224 27-1484, species assumed, other chains not shown): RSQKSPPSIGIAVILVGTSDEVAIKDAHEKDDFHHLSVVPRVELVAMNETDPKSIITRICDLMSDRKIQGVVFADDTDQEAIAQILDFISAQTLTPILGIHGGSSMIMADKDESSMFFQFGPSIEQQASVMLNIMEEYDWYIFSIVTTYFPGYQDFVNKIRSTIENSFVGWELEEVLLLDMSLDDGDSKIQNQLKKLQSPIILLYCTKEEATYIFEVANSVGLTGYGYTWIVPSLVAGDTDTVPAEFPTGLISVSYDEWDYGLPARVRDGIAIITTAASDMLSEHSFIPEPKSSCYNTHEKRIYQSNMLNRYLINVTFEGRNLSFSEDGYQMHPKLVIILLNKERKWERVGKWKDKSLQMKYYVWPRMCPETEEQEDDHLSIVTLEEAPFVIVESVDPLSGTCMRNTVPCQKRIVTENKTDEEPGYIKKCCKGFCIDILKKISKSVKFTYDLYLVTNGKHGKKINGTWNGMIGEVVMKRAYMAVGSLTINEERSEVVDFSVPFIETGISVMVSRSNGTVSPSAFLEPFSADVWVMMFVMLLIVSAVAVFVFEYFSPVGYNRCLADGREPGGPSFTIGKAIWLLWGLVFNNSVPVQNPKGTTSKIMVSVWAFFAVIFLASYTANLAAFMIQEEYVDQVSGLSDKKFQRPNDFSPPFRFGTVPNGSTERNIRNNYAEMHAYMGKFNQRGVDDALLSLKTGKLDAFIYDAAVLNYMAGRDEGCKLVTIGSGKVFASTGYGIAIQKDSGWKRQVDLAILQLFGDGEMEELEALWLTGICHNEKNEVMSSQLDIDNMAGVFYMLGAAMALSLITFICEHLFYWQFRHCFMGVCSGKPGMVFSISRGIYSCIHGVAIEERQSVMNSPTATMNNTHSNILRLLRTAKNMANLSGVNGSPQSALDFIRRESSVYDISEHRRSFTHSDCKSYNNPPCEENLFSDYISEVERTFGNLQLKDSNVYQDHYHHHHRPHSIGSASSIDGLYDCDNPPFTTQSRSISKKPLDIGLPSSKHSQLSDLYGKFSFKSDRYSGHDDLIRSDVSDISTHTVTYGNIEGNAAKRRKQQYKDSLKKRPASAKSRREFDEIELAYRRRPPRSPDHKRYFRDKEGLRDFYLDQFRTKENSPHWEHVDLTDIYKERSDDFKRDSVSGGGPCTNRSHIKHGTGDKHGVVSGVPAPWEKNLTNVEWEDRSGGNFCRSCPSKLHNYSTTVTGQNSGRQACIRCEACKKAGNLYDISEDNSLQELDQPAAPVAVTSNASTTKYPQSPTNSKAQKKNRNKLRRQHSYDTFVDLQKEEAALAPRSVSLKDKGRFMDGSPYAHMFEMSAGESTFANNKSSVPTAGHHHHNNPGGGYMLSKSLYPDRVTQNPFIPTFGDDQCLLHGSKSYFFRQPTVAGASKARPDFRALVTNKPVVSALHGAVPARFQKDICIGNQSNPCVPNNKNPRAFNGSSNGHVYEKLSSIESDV
Description: as §1, §2, §3, §4

[4] = biological target: T3, NMDAR2D (Homo sapiens, UniProt O15399); assay: [3H]MK-801 binding in NMDAR2D expressing HEK cell membranes; format: biochemical; parameters: key to B: log EC50: 0=−; ≥1×10^−9 M (e.g., −8)=+; <1×10^−9 M (e.g., −10)=++; settings: for A: % maximal [3H]MK-801 binding relative to 1 mM glycine: c3, taken as NMDAR2D
T3 construct: expressed in transfected cells; host or cells: HEK cells (membrane extract)
T3 sequence (O15399 28-1336, species assumed, other chains not shown): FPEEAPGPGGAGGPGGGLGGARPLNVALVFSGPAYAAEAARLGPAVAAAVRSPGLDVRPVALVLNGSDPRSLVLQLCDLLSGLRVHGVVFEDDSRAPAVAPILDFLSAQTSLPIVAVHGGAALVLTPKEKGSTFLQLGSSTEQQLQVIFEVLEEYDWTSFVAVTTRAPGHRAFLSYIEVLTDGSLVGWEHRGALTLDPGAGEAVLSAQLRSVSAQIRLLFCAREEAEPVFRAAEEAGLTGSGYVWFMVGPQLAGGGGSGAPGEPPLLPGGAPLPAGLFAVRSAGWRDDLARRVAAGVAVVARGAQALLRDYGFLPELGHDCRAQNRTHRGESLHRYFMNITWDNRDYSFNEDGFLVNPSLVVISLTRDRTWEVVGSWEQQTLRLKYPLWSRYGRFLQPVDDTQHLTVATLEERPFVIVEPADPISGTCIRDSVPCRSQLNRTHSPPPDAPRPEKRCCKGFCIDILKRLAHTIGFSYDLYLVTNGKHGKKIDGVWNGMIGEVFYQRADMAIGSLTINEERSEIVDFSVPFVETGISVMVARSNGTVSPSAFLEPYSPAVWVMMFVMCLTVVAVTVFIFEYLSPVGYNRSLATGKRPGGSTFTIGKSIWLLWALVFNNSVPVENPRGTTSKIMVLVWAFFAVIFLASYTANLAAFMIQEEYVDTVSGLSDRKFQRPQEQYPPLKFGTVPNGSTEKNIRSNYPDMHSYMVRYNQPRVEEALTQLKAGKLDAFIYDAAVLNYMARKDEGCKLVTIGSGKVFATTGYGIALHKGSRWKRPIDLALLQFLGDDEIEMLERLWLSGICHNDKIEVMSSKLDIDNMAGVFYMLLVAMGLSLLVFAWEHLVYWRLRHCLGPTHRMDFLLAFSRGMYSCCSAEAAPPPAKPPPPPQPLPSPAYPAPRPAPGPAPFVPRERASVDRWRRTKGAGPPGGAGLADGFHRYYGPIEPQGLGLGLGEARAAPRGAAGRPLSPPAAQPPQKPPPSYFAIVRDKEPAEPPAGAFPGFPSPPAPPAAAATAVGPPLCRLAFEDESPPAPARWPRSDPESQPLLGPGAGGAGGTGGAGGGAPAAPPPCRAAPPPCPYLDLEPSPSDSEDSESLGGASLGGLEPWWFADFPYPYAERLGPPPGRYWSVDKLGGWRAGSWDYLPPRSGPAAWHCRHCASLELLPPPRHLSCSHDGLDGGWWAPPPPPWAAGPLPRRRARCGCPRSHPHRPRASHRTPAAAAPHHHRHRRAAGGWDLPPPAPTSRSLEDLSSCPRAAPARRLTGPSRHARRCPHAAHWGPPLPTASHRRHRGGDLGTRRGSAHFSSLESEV
Description: as §1, §2, §3, §4

[5] = IV pharmacokinetics; format: in vivo; settings: Sprague Dawley rats; for C0: normal saline (first four compounds: 5% NMP, 5% Solutol HS, 90% normal saline); for Vd: read-out: Vss
Description: Sprague Dawley rats were dosed intravenously using a normal saline formulation containing 2 mg/kg of the compounds identified in the below table (except for the first four compounds that were delivered in 5% NMP, 5% Solutol® HS and 90% normal saline formulation). The table below summarizes the results of the IV pharmacokinetics.

[6] = oral pharmacokinetics (plasma, brain, CSF); format: in vivo; settings: Sprague Dawley rats, per os 10 mg/kg; for Tmax: normal saline (first four compounds: 5% NMP, 5% Solutol HS, 90% normal saline)
Description: Plasma, brain, and CSF samples were analyzed at various time points over a 24 hour period.

[7] = 1 h post-dose, floating time in 5 min test
[8] = Sprague Dawley, rat, in vivo, iv, 2 mg/kg
[9] = Sprague Dawley, rat, in vivo, iv, 2 mg/kg, read-out: C0
[10] = Sprague Dawley, rat, plasma, po, 10 mg/kg
[11] = Sprague Dawley, rat, plasma, po, 10 mg/kg, read-out: Tmax
[12] = Sprague Dawley, rat, plasma, po, 10 mg/kg, plasma, read-out: Cmax

A: % maximal [3H]MK-801 binding relative to 1 mM glycine [2]: − (−=0)
B: log EC50 [2]: −
A: % maximal [3H]MK-801 binding relative to 1 mM glycine [3]: + (<100%=+)
EC50 [3]: < 1 nM
A: % maximal [3H]MK-801 binding relative to 1 mM glycine ([4]; second part of table (r25-r35)): − (−=0)
B: log EC50 ([4]; second part of table, c4, taken as NMDAR2D): −
AUClast ([5]; intravenous 2 mg/kg): 804 ng·h/mL
Cl ([5]; intravenous 2 mg/kg): 41.29 mL/min/kg
T1/2 ([5]; intravenous 2 mg/kg): 20.4 min
Vss ([5]; intravenous 2 mg/kg): 0.91 L/kg
C0 ([5]; intravenous 2 mg/kg): 2303 ng/mL
% F [6]: 48%
AUClast [6]: 1933 ng·h/mL
CSF Cmax [6]: 1077 ng/mL
Brain Cmax [6]: 612 ng/mL
Tmax [6]: 15 min
Cmax ([6]; plasma): 2812 ng/mL
Compound: CC(C)(C)OC(=O)N1CCCCC12CCNC2=O (stereo not shown) [RG-606]

B: log EC50 [2]: −
Emax [2]: 0%
B: log EC50 [3]: −
Emax [3]: 0%
Compound: CC(C)C(=O)N1CCCCC12CCNC2=O (stereo not shown) [RG-609]

B: log EC50 [2]: −
B: log EC50 [3]: −
Compound: CC(C)C(=O)N1CCCCC12CCNC2=O (stereo not shown) [RG-610]

B: log EC50 [2]: −
Emax [2]: 0%
B: log EC50 [3]: −
Emax [3]: 0%
Compound: CC(C)(C)OC(=O)N1CCC2(CCNC2=O)CC1 [RG-619]

B: log EC50 [2]: −
Emax [2]: 0%
Emax [3]: < 100%
EC50 [3]: < 1 nM
AUC(0-t) [5, 8]: 10500 ng·h/mL
clearance [5, 8]: 3.18 mL/min/kg
half-life [5, 8]: 239 min
C0 [5, 9]: 4130 ng/mL
Vd [5, 8]: 0.56 L/kg
CSF Cmax [6]: 4727 ng/mL
Brain Cmax [6]: 4317 ng/mL
AUC(0-t) [6, 10]: 42600 ng·h/mL
bioavailability [6, 10]: 81%
Cmax [6, 12]: 10900 ng/mL
Tmax ([6]; rat, plasma, po, read-out: Tmax): 25.2 min
Compound: CC(C)C(=O)N1CCC2(CCNC2=O)CC1 [RG-623]
Significance vs. vehicle [1, 7]: Yes (statistically significant (p<=0.05) from vehicle at dose level shown)
% reduction in float time ([1]; 1 h post-dose): 60.0%
Significance vs. vehicle ([1]; 24 h post-dose): Yes (statistically significant (p<=0.05) from vehicle at dose level shown)
% reduction in float time ([1]; 24 h post-dose): 52.9%

A: % maximal [3H]MK-801 binding relative to 1 mM glycine [2]: − (−=0)
B: log EC50 [2]: −
A: % maximal [3H]MK-801 binding relative to 1 mM glycine [3]: + (<100%=+)
EC50 [3]: < 1 nM
Compound: CC(C)C(=O)N1CCCC12CCNC2=O (stereo not shown) [RZ-406]

Continued, compound first:

Compound: O=C1NCCC12CCCCN2 (stereo not shown) [RG-602]
Significance vs. vehicle ([1]; 1 wk post-dose): Yes (statistically significant (p<=0.05) from vehicle at dose level shown)
% reduction in float time ([1]; 1 wk post-dose): 55.5%
Significance vs. vehicle [1, 7]: Yes (statistically significant (p<=0.05) from vehicle at dose level shown)
% reduction in float time ([1]; 1 h post-dose): 71.1%
A: % maximal [3H]MK-801 binding relative to 1 mM glycine [2]: + (<100%=+)
EC50 [2]: < 1 nM
A: % maximal [3H]MK-801 binding relative to 1 mM glycine [3]: + (<100%=+)
EC50 [3]: < 1 nM
A: % maximal [3H]MK-801 binding relative to 1 mM glycine ([4]; second part of table (r25-r35)): + (<100%=+)
EC50 ([4]; second part of table (r25-r35), c4, taken as NMDAR2D, read-out: B: log EC50 (converted)): < 1 nM

Compound: O=C1NCCC12CCNCC2 [RG-603]
Emax [2]: < 100%
EC50 [2]: ≥ 1 nM
Emax [3]: < 100%
EC50 [3]: < 1 nM
AUC(0-t) [5, 8]: 1570 ng·h/mL
clearance [5, 8]: 21.1 mL/min/kg
half-life [5, 8]: 59.4 min
C0 [5, 9]: 5190 ng/mL
Vd [5, 8]: 0.81 L/kg
AUC(0-t) [6, 10]: 897 ng·h/mL
bioavailability [6, 10]: 11%
Tmax [6, 11]: 60 min
Cmax [6, 12]: 311 ng/mL

Compound: CC(=O)N1CCC2(CCNC2=O)CC1 [RG-621]
Emax [2]: < 100%
EC50 [2]: < 1 nM
Emax [3]: > 100%
EC50 [3]: < 1 nM
AUC(0-t) [5, 8]: 6230 ng·h/mL
clearance [5, 8]: 5.33 mL/min/kg
half-life [5, 8]: 103 min
C0 [5, 9]: 4760 ng/mL
Vd [5, 8]: 0.52 L/kg
CSF Cmax [6]: 3654.37 ng/mL
Brain Cmax [6]: 1977.29 ng/mL
AUC(0-t) [6, 10]: 29100 ng·h/mL
bioavailability [6, 10]: 93%
Tmax [6, 11]: 34.8 min
Cmax [6, 12]: 12000 ng/mL

Compound: O=C1NCCC12CCCN2 (stereo not shown) [RX-1, 1,7-diazaspiro[4.4]nonan-6-one]
B: log EC50 [2]: −
Emax [2]: 0%
B: log EC50 [3]: −
Emax [3]: 0%

Compound: CC(=O)N1CCCC12CCNC2=O (stereo not shown) [RZ-403]
A: % maximal [3H]MK-801 binding relative to 1 mM glycine [2]: − (−=0)
B: log EC50 [2]: −
A: % maximal [3H]MK-801 binding relative to 1 mM glycine [3]: ++ (>100%=++)
EC50 [3]: < 1 nM

Compound: CC(=O)N1CCCC12CCNC2=O (stereo not shown) [RZ-404]
A: % maximal [3H]MK-801 binding relative to 1 mM glycine [2]: + (<100%=+)
EC50 [2]: < 1 nM
A: % maximal [3H]MK-801 binding relative to 1 mM glycine [3]: − (−=0)
B: log EC50 [3]: −
